Test results reported in PubChem BioAssay (NCI).
Where “and” joins values, the source holds several entries; their conditions need not be identical. Equal entries are not always repeated.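 Dose response: 5 concentrations. Exposure: 48 h. Format: 96-well plates. Endpoint: linear interpolation; highest concentration if not reached. At the GI50, growth is halved. Definition used: TGI = concentration required for complete inhibition of growth.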

Columns and labels:
Assay in all cases: growth of human tumour cells (NCI), 48 h
HT29 colon = tested on: HT29 colon
BT-549 breast = tested on: BT-549 breast
786-0 renal = tested on: 786-0 renal
NCI-H226 lung = tested on: NCI-H226 lung
UACC-257 melanoma = tested on: UACC-257 melanoma
IGROV1 ovarian = tested on: IGROV1 ovarian
HCT-116 colon = tested on: HCT-116 colon
LOX IMVI melanoma = tested on: LOX IMVI melanoma
NCI-H522 lung = tested on: NCI-H522 lung
NCI/ADR-RES ovarian = tested on: NCI/ADR-RES ovarian

Row | SMILES | GI50 (HT29 colon) | TGI (HT29 colon) | GI50 (BT-549 breast) | TGI (BT-549 breast) | GI50 (786-0 renal) | TGI (786-0 renal) | GI50 (NCI-H226 lung) | TGI (NCI-H226 lung) | GI50 (UACC-257 melanoma) | TGI (UACC-257 melanoma) | GI50 (IGROV1 ovarian) | TGI (IGROV1 ovarian) | GI50 (HCT-116 colon) | TGI (HCT-116 colon) | GI50 (LOX IMVI melanoma) | TGI (LOX IMVI melanoma) | GI50 (NCI-H522 lung) | TGI (NCI-H522 lung) | TGI (NCI/ADR-RES ovarian) | GI50 (NCI/ADR-RES ovarian)
1 | COc1ccc(-c2nc(N3CCOCC3)c3sc(CN(C)c4ncc(C(=O)NO)cn4)cc3n2)cn1 | < 0.01 µM | 0.0331 µM | 0.014 µM | 0.15 µM | 0.0313 µM | 0.171 µM | 0.0112 µM | 1.13 µM | < 0.01 µM | 0.0466 µM | < 0.01 µM | 0.0439 µM |  |  |  |  |  |  |  | 
2 | O=C(NC1CCCCC1)NS(=O)(=O)c1ccc(-n2nc3c(c2-c2ccc(Cl)cc2)Cc2ccccc2-3)cc1 | 34.8 µM | > 100 µM | 3.52 µM | 17.3 µM | 5.07 µM | > 100 µM | 6.15 µM | 54.9 µM | 18.4 µM | 39.8 µM | 18.6 µM | 35.8 µM | 4.18 µM | > 100 µM | 1.94 µM | 4.12 µM | 18.3 µM | 52.5 µM |  | 
3 | CCCCCCCCCCCCCCCCCC(=O)OCC(C[As](=O)(O)O)OC(=O)CCCCCCCCCCCCCCCCC (centres undefined) |  | > 100 µM |  |  |  | > 100 µM |  | 70.4 µM |  | > 100 µM |  | > 100 µM |  | > 100 µM |  |  |  | > 100 µM |  | 
4 | Oc1ccc(-c2cn3cc(Cl)sc3n2)cc1 | 24.2 µM | 78.8 µM | 32.1 µM | > 100 µM | 18.2 µM | 67.1 µM | 5.49 µM | 48.5 µM | 46.2 µM | > 100 µM | 67.7 µM | > 100 µM |  |  | 32.3 µM | 86.2 µM | 32.6 µM | > 100 µM |  | 
5 | COC1=C2C[C@@H](C)C[C@@H](OC)[C@@H](O)[C@H](C)/C=C(\C)[C@@H](OC(N)=O)[C@H](OC)/C=C\C=C(/C)C(=O)NC(=CC1=O)C2=O |  |  |  |  |  | 8.21 µM and 6.04 µM and 13.7 µM |  |  |  | 5.05 µM and 12.7 µM and 2.5 µM |  |  |  | 3.95 µM and 5.44 µM and 1.88 µM | 0.0208 µM and 0.051 µM and 0.0459 µM | 1.48 µM and 1.38 µM |  |  | 10.7 µM and 32.8 µM and 10.6 µM | 
6 | COc1ccc(C(=O)CC(=O)C(=O)Nc2ccc(C)c(C)c2)cc1 |  | > 100 µM |  |  |  | > 100 µM |  | > 100 µM |  | > 100 µM |  | > 100 µM |  | > 64.4 µM |  | > 55.7 µM |  | > 100 µM |  | 
7 | COc1ccccc1C(N)c1ccccc1 (centres undefined) |  | > 100 µM |  |  |  | > 100 µM |  | > 100 µM |  | > 100 µM |  | > 100 µM |  | > 100 µM |  | > 100 µM |  | > 100 µM |  | 
8 | CN(C)C1=NC2=S(SC(Nc3ccccc3)=N2)S1 (centres undefined) |  | > 100 µM |  |  |  | > 100 µM |  | > 100 µM |  | 70.8 µM |  | > 100 µM |  | > 100 µM |  | > 100 µM |  | 60.2 µM |  | 
9 | O=C(c1nc2ccc(Cl)cc2[nH]c1=O)C(O)c1ccc2c(c1)OCO2 (centres undefined) |  | > 100 µM |  |  |  | > 100 µM |  | > 100 µM |  | > 100 µM |  | > 100 µM |  |  |  | > 100 µM |  | > 100 µM |  | 
10 | COC(=O)C1=C(c2ccc3c(c2)OCO3)OC(c2ccc3c(c2)OCO3)C1 (centres undefined) |  | > 100 µM |  |  |  | > 100 µM |  | > 100 µM |  | > 100 µM |  | > 100 µM |  | > 100 µM |  | > 100 µM |  |  |  | 
11 | N#CCCSC(=S)C1CCCC1=N (centres undefined) |  | > 100 µM |  | > 100 µM |  | > 100 µM |  | > 100 µM |  | > 100 µM |  | > 100 µM |  | > 100 µM |  |  |  | > 100 µM | > 100 µM | 
12 | CCC[CH2][Sn]1([CH2]CCC)[O]CC(CN2CCOCC2)[O]1 (centres undefined) | 9.65 µM | 23.6 µM |  |  | 2.63 µM | 7.39 µM | 20.2 µM | 34.8 µM | 4.29 µM | 15.1 µM | 12.1 µM | 26.1 µM | 8.84 µM | 21 µM | 2.02 µM | 5.7 µM | 1.12 µM | 2.55 µM |  | 
13 | CCCCCCCCCCCCCCCCCC(=O)OCC(COC1OC(CS(=O)(=O)O)C(O)C(O)C1O)OC(=O)CCCCCCCCCCCCCCCCC (centres undefined) |  | > 100 µM |  |  |  | > 100 µM |  | > 100 µM |  | > 100 µM |  | > 100 µM |  | > 100 µM |  | > 100 µM |  | > 100 µM | > 100 µM | 
14 | CCC1CC(C)=CCN1S(=O)(=O)c1ccc(C)cc1 (centres undefined) |  | 39.3 µM |  |  |  | > 100 µM |  | 80.7 µM |  | > 100 µM |  |  |  | > 100 µM |  | 33.6 µM |  | 46.4 µM |  | 
15 | COc1ccc(NC(=O)CC(=O)N2N=C(N(CCC#N)c3cccc(C)c3)CC2c2ccccc2)cc1 (centres undefined) |  | > 100 µM |  |  |  | > 100 µM |  | > 100 µM |  | > 100 µM |  | > 100 µM |  | > 100 µM |  |  |  | > 100 µM |  | 
16 | CCOC(=O)c1c(Cl)c2c(n1Cc1cccc(OC)c1)-c1oncc1CC2 | 0.799 µM | 15.1 µM |  |  | 4.5 µM | 52.7 µM | 6.82 µM | > 100 µM | 6.41 µM | > 100 µM | 1.23 µM | 59 µM | 0.904 µM | 24.2 µM | 2.51 µM | > 100 µM | 0.351 µM | 6.73 µM | 6.91 µM | 0.497 µM
17 | COc1ccc(C(=O)C(C(=O)C(=O)NC2C3CC4CC(C3)CC2C4)c2ccc(OC)cc2)cc1 (centres undefined) |  | > 100 µM |  |  |  | > 100 µM |  | > 100 µM |  | > 100 µM |  | > 100 µM |  | > 100 µM |  | > 100 µM |  | > 100 µM |  | 
18 | COc1cc(Nc2nc3cc(C(F)(F)F)ccc3nc2-c2ccccc2)cc(OC)c1OC |  | > 100 µM |  |  |  | > 100 µM |  | > 100 µM |  | > 100 µM |  | > 100 µM |  |  |  | > 100 µM |  | 83.4 µM |  | 
19 | CC1=NC(C(C)C)C(=O)O1 (centres undefined) |  | > 100 µM |  |  |  | > 100 µM |  | > 100 µM |  | > 100 µM |  | > 100 µM |  | 34.1 µM |  |  |  | > 100 µM |  | 
20 | CCOC(=O)NC(=O)c1cn(CCCOC(=O)NCCCCCCNC(=O)OCCCn2cc(C(=O)NC(=O)OCC)c(=O)[nH]c2=O)c(=O)[nH]c1=O |  | > 100 µM |  |  |  | 49.9 µM |  |  |  | 37 µM |  | > 100 µM |  | > 100 µM |  | > 100 µM |  |  |  | 
21 | O=NN/C(=C1\Nc2ccc([N+](=O)[O-])cc2NC1=O)C(O)c1ccc([N+](=O)[O-])cc1 (centres undefined) |  | > 100 µM |  |  |  | > 100 µM |  | > 100 µM |  | > 100 µM |  | > 100 µM |  | > 100 µM |  | > 100 µM |  | > 100 µM |  | 
